Data as given in ChEMBL document CHEMBL5505996, “Discovery of novel osthole derivatives exerting anti-inflammatory effect on DSS-induced ulcerative colitis and LPS-induced acute lung injury in mice” (Eur J Med Chem, 2024).
Values after ≈ are worked out from the molar mass of the structure shown. Active and inactive are the calls of the source. The rule behind the calls is not given here.

Legend:
Mus musculus [1] = test: (§1) Antiinflammatory activity against C57BL/6 mouse model of LPS induced acute lung injury assessed as reduction in interstitial edema at 20 mg/kg, po administered every 12 hrs for 3 times followed by LPS stimulation for 6 hrs starting from 30 mins post last dose by H and E staining based analysis; type: functional, organism-based; details: time 42.5 hrs
Mus musculus [2] = test: as §1, with “inflammatory cell infiltration” for “interstitial edema”; type: functional, organism-based; details: time 42.5 hrs
J774.A1 [3] = test: Antiinflammatory activity against LPS-induced mouse J774.A1 cells assessed as inhibition of IL-6 release pretreated for 30 mins followed by LPS stimulation and measured after 24 hrs by ELISA; type: functional, cell-based
J774.A1 [4] = test: Inhibition of MAPK signaling pathway in LPS-stimulated mouse J774.A1 cells assessed as reduction in JNK phosphorylation at 10 uM pretreated for 2 hrs followed by LPS stimulation and measured after 30 mins by Western blot analysis; type: cell-based; details: time 2.5 hrs
[5] = Acute toxicity in ICR mouse assessed as effect on physiological status at 500 mg/kg, po measured daily for 10 days; type: organism-based; details: in vivo, 240 h, time 10 day
Mus musculus [6] = test: Antiinflammatory activity against C57BL/6 mouse model of DSS induced ulcerative colitis assessed as reduction in IL-6 level in serum at 20 mg/kg, po administered daily for 10 days; type: functional, organism-based; details: time 10.0 day
Mus musculus [7] = test: as §1, with “pulmonary” for “interstitial”, “edema by measuring reduction in lung wet/dry ratio” for “edema”, “dose” for “dose by H and E staining based analysis”; type: functional, organism-based; details: time 42.5 hrs
J774.A1 [8] = test: Inhibition of NFkappaB signaling pathway in LPS-induced mouse J774.A1 cells assessed as reduction in p65 phosphorylation pretreated for 2 hrs followed by LPS stimulation and measured after 30 mins by Western blot analysis; type: cell-based; details: time 2.5 hrs
Mus musculus [9] = test: Antiinflammatory activity against C57BL/6 mouse model of LPS induced acute lung injury assessed as reduction in IL-6 level in serum at 20 mg/kg, po administered every 12 hrs for 3 times followed by LPS stimulation for 6 hrs starting from 30 mins post last dose by ELISA; type: functional, organism-based; details: time 42.5 hrs
[10] = Acute toxicity in ICR mouse assessed as effect on daily activities at 500 mg/kg, po measured daily for 10 days; type: organism-based; details: in vivo, 240 h, time 10 day
[11] = Aqueous solubility of compound in phosphate buffer at pH 7.4 measured after 24 hrs by HPLC analysis; type: physicochemical
[12] = Tmax in male Sprague-Dawley rat at 10 mg/kg, po by UPLC-MS/MS analysis; type: ADME, organism-based; details: in vivo
RAW264.7 = test: Potency index, ratio of osthole IC50 to test compound IC50 for antiinflammatory activity against LPS-induced mouse RAW264.7 cells assessed as inhibition of IL-6 release pretreated for 30 mins followed by LPS stimulation and measured after 24 hrs by ELISA; type: functional; details: time 24.5 hrs
J774.A1 [13] = test: Antiinflammatory activity against LPS-induced mouse J774.A1 cells assessed as inhibition of TNF-alpha release pretreated for 30 mins followed by LPS stimulation and measured after 24 hrs by ELISA; type: functional, cell-based
THP-1 = test: Antiinflammatory activity against LPS-induced PMA-differentiated human THP-1 cells assessed as inhibition of IL-6 release pretreated for 30 mins followed by LPS stimulation and measured after 24 hrs by ELISA; type: functional, cell-based
J774.A1 [14] = test: Antiinflammatory activity against LPS-induced mouse J774.A1 cells assessed as inhibition of IL-6 release at 10 uM pretreated for 30 mins followed by LPS stimulation and measured after 24 hrs by ELISA relative to control; type: functional; details: time 24.5 hrs

## CC(C)=CCc1c(OCCCCNCCN2CCOCC2)ccc2ccc(=O)oc12
Mus musculus [1]
  Activity: Active
Mus musculus [2]
  Activity: Active
J774.A1 [3]
  IC50: 4.23 µM
J774.A1 [3]; time 24.5 hrs
  Activity: Dose-Dependent Effect
J774.A1 [4]
  inhibition: Active
[5]
  Activity: Non-Toxic
Mus musculus [6]
  Activity: Active
Mus musculus [7]
  Activity: Active
J774.A1 [8]
  inhibition: inactive
Mus musculus [9]
  Activity: Active
[10]
  Activity: Non-Toxic
[11]
  solubility at 24 h: 340 µg/mL (≈ 820 µM)
[12]
  Tmax: 3.33 h
RAW264.7
  Ratio IC50: 32
J774.A1 [13]
  IC50: 18.1 µM
THP-1
  IC50: 10.6 µM
J774.A1 [14]
  inhibition at 10 µM: 95%
